Reference: PubChem BioAssay AID330 (DTP/NCI, 2004)
Several values for one entry are separate records, joined by “and”; a condition that tells them apart may be missing. Identical values can stand only once. Inconclusive results and toxic doses are left out.

Test system: P388 leukemia ip, CD2F1 mice, survival T/C
Test: NCI In Vivo Anticancer Drug Screen. Data for tumor model P388 Leukemia (intraperitoneal) in CD2F1 (CDF1) mice
Conditions: endpoint: median survival time, higher = longer survival
Outline: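 Mice carrying the transplanted tumor received test compound or vehicle. Survival was recorded in each group, and the value is the treated-group measurement divided by that of the vehicle-treated control group.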

[1] = dose: 60.0 mg/kg/injection, schedule: Q01DX005 (ip), vehicle: saline with Tween-80
[2] = dose: 120.0 mg/kg/injection, schedule: Q01DX005 (ip), vehicle: saline with Tween-80
[3] = dose: 240.0 mg/kg/injection, schedule: Q01DX005 (ip), vehicle: saline with Tween-80
[4] = dose: 50.0 mg/kg/injection, schedule: Q01DX009 (ip), vehicle: saline with Tween-80
[5] = dose: 100.0 mg/kg/injection, schedule: Q01DX009 (ip), vehicle: saline with Tween-80
[6] = dose: 200.0 mg/kg/injection, schedule: Q01DX009 (ip), vehicle: saline with Tween-80
[7] = dose: 400.0 mg/kg/injection, schedule: Q01DX009 (ip), vehicle: saline with Tween-80
[8] = dose: 6.25 mg/kg/injection, schedule: Q01DX009 (ip), vehicle: saline with Tween-80
[9] = dose: 12.5 mg/kg/injection, schedule: Q01DX009 (ip), vehicle: saline with Tween-80
[10] = dose: 25.0 mg/kg/injection, schedule: Q01DX009 (ip), vehicle: saline with Tween-80
[11] = dose: 200.0 mg/kg/injection, schedule: Q01DX009 (ip), vehicle: saline
[12] = dose: 50.0 mg/kg/injection, schedule: Q01DX005 (ip), vehicle: Klucel (hydroxypropylcellulose) (HPC)
[13] = dose: 100.0 mg/kg/injection, schedule: Q01DX005 (ip), vehicle: Klucel (hydroxypropylcellulose) (HPC)
[14] = dose: 200.0 mg/kg/injection, schedule: Q01DX005 (ip), vehicle: Klucel (hydroxypropylcellulose) (HPC)
[15] = dose: 50.0 mg/kg/injection, schedule: Q01DX009 (ip), vehicle: Klucel (hydroxypropylcellulose) (HPC)
[16] = dose: 100.0 mg/kg/injection, schedule: Q01DX009 (ip), vehicle: Klucel (hydroxypropylcellulose) (HPC)
[17] = dose: 200.0 mg/kg/injection, schedule: Q01DX009 (ip), vehicle: Klucel (hydroxypropylcellulose) (HPC)

For `Nc1cc2c(cc1Br)-c1c(C(=O)O)cccc1C2O` (stereo not given), the T/C (dose: 50.0 mg/kg/injection, schedule: Q01DX005 (ip), vehicle: sodium bicarbonate) was 113 % of control, the T/C [1] was 100 % of control and 101 % of control and the T/C (dose: 100.0 mg/kg/injection, schedule: Q01DX005 (ip), vehicle: sodium bicarbonate) was 123 % of control. For the same compound, the T/C [2] was 104 % of control, the T/C [3] was 123 % of control and the T/C (dose: 480.0 mg/kg/injection, schedule: Q01DX005 (ip), vehicle: saline with Tween-80) was 154 % of control.

With `CN(C)C1C(O)C2Oc3c(cc(O)c4c3C(=O)c3cc5c(c(O)c3C4=O)C(N3CCCC3)CC(C)(O)C5)C(C)(O2)C1O` (stereo not given) the T/C (dose: 3.12 mg/kg/injection, schedule: Q01DX009 (ip), vehicle: other) was 113 % of control, the T/C (dose: 6.25 mg/kg/injection, schedule: Q01DX009 (ip), vehicle: other) was 116 % of control and the T/C (dose: 12.5 mg/kg/injection, schedule: Q01DX009 (ip), vehicle: other) was 122 % of control.

With `Cc1cc2oc3c(c2c(=O)[nH]1)C(=O)c1ccccc1C3=O` the T/C [1] was 100 % of control, the T/C [2] was 94 % of control and the T/C [3] was 91 % of control.

`C=CC(=NC(C)(C)C)Nc1ccc(C(=O)OCC)cc1` was tested, and the T/C [4] was 113 % of control and the T/C [5] was 106 % of control.

`COc1cccc(/C=N/NC(=O)N/N=C/c2cccc(OC)c2O)c1O` was tested, and the T/C [4] was 92 % of control, the T/C [5] was 100 % of control and the T/C [6] was 101 % of control. For the same compound, the T/C [7] was 95 % of control.

With `O=C[O-].[NH2-].[NH2-].[NH2-].[NH2-].[NH2-].[O-][Cl+3]([O-])([O-])O.[Ru+8]` the T/C (dose: 1.56 mg/kg/injection, schedule: Q04DX003 (ip), vehicle: saline) was 105 % of control, the T/C (dose: 3.13 mg/kg/injection, schedule: Q04DX003 (ip), vehicle: saline) was 104 % of control and the T/C (dose: 6.25 mg/kg/injection, schedule: Q04DX003 (ip), vehicle: saline) was 124 % of control.

For `C=C=C(C)C(C(C)C)N1CCCC1` (stereo not given), the T/C (dose: 50.0 mg/kg/injection, schedule: Q01DX005 (ip), vehicle: saline) was 113 % of control and the T/C (dose: 100.0 mg/kg/injection, schedule: Q01DX005 (ip), vehicle: saline) was 104 % of control.

For `CC1OC(O[C@H]2C[C@](O)(C(C)O)Cc3c(O)c4c(c(O)c32)C(=O)c2c(O)cccc2C4=O)CC(NC=O)C1O` (stereo not given in full), the T/C (dose: 0.16 mg/kg/injection, schedule: Q04DX003 (ip), vehicle: water) was 118 % of control, the T/C (dose: 0.32 mg/kg/injection, schedule: Q04DX003 (ip), vehicle: water) was 113 % of control and the T/C (dose: 0.33 mg/kg/injection, schedule: Q04DX003 (ip), vehicle: water) was 103 % of control. For the same compound, the T/C (dose: 0.65 mg/kg/injection, schedule: Q04DX003 (ip), vehicle: water) was 111 % of control, the T/C (dose: 1.29 mg/kg/injection, schedule: Q04DX003 (ip), vehicle: water) was 115 % of control and the T/C (dose: 2.58 mg/kg/injection, schedule: Q04DX003 (ip), vehicle: water) was 123 % of control.

`CCO/C(C)=N\c1nc(C)[nH]c1C(N)=O` was tested, and the T/C [8] was 120 % of control, the T/C [9] was 106 % of control and the T/C [10] was 87 % of control. The T/C [11] was 86 % of control.

In the case of `COC(=O)C1=C(C(=O)OC)CCC1`, the T/C (dose: 25.0 mg/kg/injection, schedule: Q01DX009 (ip), vehicle: distilled water + Tween-80) is reported as 97 % of control, the T/C (dose: 50.0 mg/kg/injection, schedule: Q01DX009 (ip), vehicle: distilled water + Tween-80) is reported as 91 % of control and the T/C (dose: 100.0 mg/kg/injection, schedule: Q01DX009 (ip), vehicle: distilled water + Tween-80) is reported as 100 % of control. For the same compound, the T/C (dose: 200.0 mg/kg/injection, schedule: Q01DX009 (ip), vehicle: distilled water + Tween-80) was 105 % of control and the T/C (dose: 400.0 mg/kg/injection, schedule: Q01DX009 (ip), vehicle: distilled water + Tween-80) was 100 % of control.

In the case of `NC(C(=O)O)C(CC(=O)O)c1ccncc1` (stereo not given), the T/C (dose: 100.0 mg/kg/injection, schedule: Q04DX003 (ip), vehicle: saline with Tween-80) is reported as 96 % of control, the T/C (dose: 200.0 mg/kg/injection, schedule: Q04DX003 (ip), vehicle: saline with Tween-80) is reported as 89 % of control and the T/C (dose: 400.0 mg/kg/injection, schedule: Q04DX003 (ip), vehicle: saline with Tween-80) is reported as 98 % of control.

In the case of `COC1/C=C/OC2(C)Oc3c(C)c(O)c4c(O)c(c(/C=N/n5c(=O)[nH]c6ccccc6c5=O)c(O)c4c3C2=O)NC(=O)/C(C)=C\C=C\C(C)C(O)C(C)C(O)C(C)C(OC(C)=O)C1C` (stereo not given), the T/C [4] is reported as 107 % of control, the T/C [5] is reported as 108 % of control and the T/C [6] is reported as 106 % of control.

For `CC1OC(OC2C(O[C@H]3CC[C@@]4(C)C(=CC[C@H]5[C@@H]6C[C@@H]7O[C@]8(CC[C@H](C)CN8)[C@@H](C)[C@@H]7[C@@]6(C)CC[C@@H]54)C3)OC(CO)C(O)C2OC2OC(CO)C(O)C(O)C2O)C(O)C(O)C1O` (stereo not given in full), the T/C [8] was 90 % of control, the T/C [9] was 86 % of control and the T/C [10] was 90 % of control.

For `Cc1ccc(C2(C(=O)O)CC2)cc1`, the T/C [5] was 100 % of control, the T/C [6] was 100 % of control and the T/C [7] was 90 % of control.

For `COC(=O)C1=C(C(=O)OC)P2(c3ccccc3)(c3ccccc3)S/C(=N\P(C)(C)=S)N2C1(c1ccccc1)c1ccccc1`, the T/C [12] was 98 % of control, the T/C [13] was 88 % of control and the T/C [14] was 92 % of control.

With `FC(F)(F)C1=C(C(F)(F)F)OP2(Oc3ccccc3)(O1)Oc1ccccc1O2` the T/C (dose: 25.0 mg/kg/injection, schedule: Q04DX003 (ip), vehicle: suspension in saline) was 102 % of control, the T/C (dose: 50.0 mg/kg/injection, schedule: Q04DX003 (ip), vehicle: suspension in saline) was 101 % of control and the T/C (dose: 100.0 mg/kg/injection, schedule: Q04DX003 (ip), vehicle: suspension in saline) was 97 % of control.

For `CN(C)c1ccc(/C=C2/SC(=S)NC2=O)cc1`, the T/C (dose: 25.0 mg/kg/injection, schedule: Q01DX005 (ip), vehicle: saline with Tween-80) was 93 % of control, the T/C (dose: 50.0 mg/kg/injection, schedule: Q01DX005 (ip), vehicle: saline with Tween-80) was 90 % of control and the T/C (dose: 100.0 mg/kg/injection, schedule: Q01DX005 (ip), vehicle: saline with Tween-80) was 87 % of control.

In the case of `CC(=O)Nc1ccc2c(c1)C(=O)c1ccccc1-2`, the T/C (dose: 100.0 mg/kg/injection, schedule: Q04DX003 (ip), vehicle: Klucel (hydroxypropylcellulose) (HPC)) is reported as 100 % of control, the T/C (dose: 200.0 mg/kg/injection, schedule: Q04DX003 (ip), vehicle: Klucel (hydroxypropylcellulose) (HPC)) is reported as 110 % of control and the T/C (dose: 400.0 mg/kg/injection, schedule: Q04DX003 (ip), vehicle: Klucel (hydroxypropylcellulose) (HPC)) is reported as 110 % of control.

With `Cc1ccc(C)c(NC(=O)C#N)c1` the T/C [1] was 93 % of control.

With `N#C/C(=C1/NC(=O)c2ccccc21)c1nc2ccccc2s1` the T/C [4] was 89 % of control, the T/C [5] was 90 % of control and the T/C [6] was 96 % of control.

`CCOC(=O)c1[nH]c(=O)c2ccccc2c1O` was tested, and the T/C (dose: 12.5 mg/kg/injection, schedule: Q01DX009 (ip), vehicle: suspension in saline) was 91 % of control, the T/C (dose: 25.0 mg/kg/injection, schedule: Q01DX009 (ip), vehicle: suspension in saline) was 92 % of control and the T/C (dose: 50.0 mg/kg/injection, schedule: Q01DX009 (ip), vehicle: suspension in saline) was 99 % of control. For the same compound, the T/C (dose: 100.0 mg/kg/injection, schedule: Q01DX009 (ip), vehicle: suspension in saline) was 98 % of control.

In the case of `CSc1nc(C)nc2sc(CO)nc12`, the T/C (dose: 100.0 mg/kg/injection, schedule: Q04DX002 (ip), vehicle: suspension in saline) is reported as 97 % of control, the T/C (dose: 200.0 mg/kg/injection, schedule: Q04DX002 (ip), vehicle: suspension in saline) is reported as 97 % of control and the T/C (dose: 400.0 mg/kg/injection, schedule: Q04DX002 (ip), vehicle: suspension in saline) is reported as 96 % of control.

With `CC12CC3(C)CC(C)(C1)CC(C(Cl)C(=O)NC(C)(C)C)(C2)C3` (stereo not given) the T/C [15] was 97 % of control, the T/C [16] was 93 % of control and the T/C [17] was 107 % of control.

For `Cn1ccc2c3c(ccc21)C(N1CCOCC1)=CS(=O)(=O)O3`, the T/C [12] was 104 % of control, the T/C [13] was 98 % of control and the T/C [14] was 100 % of control.

`O=C(O)c1cc(-c2ccc(Cl)c(Cl)c2)nc2cc3ccccc3cc12` was tested, and the T/C [15] was 110 % of control, the T/C [16] was 106 % of control and the T/C [17] was 95 % of control.

For `N#CC1=C(C#N)CC2C(C1)OC1CC(C#N)=C(C#N)CC12` (stereo not given), the T/C (dose: 50.0 mg/kg/injection, schedule: Q01DX009 (ip), vehicle: saline) was 100 % of control, the T/C (dose: 100.0 mg/kg/injection, schedule: Q01DX009 (ip), vehicle: saline) was 101 % of control and the T/C [11] was 100 % of control.
